Measured values as given in US11660324B2, “Copper complexes for treatment of neurodegenerative disorders” (ALS Therapy Development Institute, priority 2019, dated 2023).

Experiments:
mice = experiment: Tolerability in mice (previous studies); type: in vivo; conditions: 30 mg/kg
SOD1^G93A mice [1] = experiment: Onset of paresis by neurological scoring; type: in vivo
Experimental: (§1) To test the efficacy of CuPTSM compared to CuATSM, mice were tested for delays in paresis and overall lifespan. Mice were given 6 mg/kg CuPTSM (n=32), 30 mg/kg CuATSM (n=32), and 100 mg/kg CuATSM (n=32) once a day to assess disease progression, and identify drug-induced changes in SOD1^G93A mice compared to their respective vehicle-only control mice. Neurological scoring to test the onset of paresis for each mouse was performed throughout the study according to the protocol as disclosed in Hatzipetros et al. (2015, J. Visualized Experiments. doi:10.3791/53257), incorporated herein by reference in its entirety. Briefly, mice were scored on a scale of NS 0 (pre-symptomatic) to NS 4 (humane end-point) based on a combination of a tail suspension test, a walking test, and a “righting reflex” test.
(§2) To compare the effects of CuPTSM administered at a much lower dose than CuATSM, mice were administered 6 mg/kg […] and survival and onset of paresis were measured as before.

SOD1^G93A mice [2] = experiment: Survival / lifespan; type: in vivo
Experimental: as §1
Survival for each cohort was also tracked throughout the study.
as §2

[3] = Pharmacokinetic simulation of repeated dosing, linear kinetics assumed; set-up: species or system mice; conditions: simulation from single-dose PK parameters
Experimental: FIG. 3A is a simulation using PK parameters derived from the experiment of FIG. 1A and FIG. 1B, assuming linear pharmacokinetics. Plasma concentrations (ng/mL) in mice receiving 6 mg/kg CuPTSM, 30 mg/kg CuATSM, or 100 mg/kg CuATSM are depicted over time (hours). FIG. 3B is a simulation using PK parameters derived from the experiment of FIG. 1A and FIG. 1B, assuming linear pharmacokinetics. Spinal cord concentrations (ng/mL) in mice receiving 6 mg/kg CuPTSM, 30 mg/kg CuATSM, or 100 mg/kg CuATSM are depicted over time (hours).
Using the data and parameters derived from the above experiments using a single bolus of 6 mg/kg CuPTSM, 30 mg/kg CuATSM, or 100 mg/kg CuATSM, plasma and spinal cord concentrations were recorded on a plot over time (hours) to illustrate pharmacokinetic simulations over time. Linear kinetics were assumed. […] Similar results were obtained when concentrations were measured in spinal cord samples (FIG. 3B).

[4] = Pharmacokinetics of CuPTSM compared to CuATSM (plasma and spinal cord) after single oral bolus; type: in vivo; conditions: single oral bolus 30 mg/kg, SOD1^G93A mice
Experimental: The SOD1^G93A transgenic mouse model of ALS has been the most widely used animal model since the 1990s. The mouse was genetically engineered to overexpress a mutant form of the human Cu/Zn superoxide dismutase 1 (SOD1) gene harboring an ALS-associated glycine to alanine mutation at amino acid position 93 (G93A). Currently, the clinical strategy for the treatment of ALS with CuATSM is to escalate human dosing until ALS patients show plasma levels equivalent to those seen in mice given 30 mg/kg/day.
To compare the effects of CuPTSM to CuATSM in vivo, a single bolus of 30 mg/kg CuPTSM or 30 mg/kg CuATSM in an oral suspension of 0.5% methylcellulose/0.4% TWEEN-80/0.9% normal saline was administered to SOD1^G93A mice. Absorption half-life, elimination half-life, and Cmax measurements were taken from both plasma and spinal cord samples to measure drug exposure of CuPTSM or CuATSM for up to 6 hr after administration of drug.
Similar measurements were recorded for concentrations of CuPTSM and CuATSM in the spinal cord. […] As with the plasma concentrations, the spinal cord concentrations of CuATSM remained constant, even 6 hr after administration (FIG. 2B).

male SOD1^G93A mice = experiment: Compound muscle action potential (CMAP), sciatic nerve / tibialis anterior; type: in vivo
Experimental: Compound muscle action potential (CMAP) was measured in mice given CuPTSM, CuATSM, or vehicle. CMAP is an electrophysiological technique that assess functional integrity of motor axons. The sciatic nerve is stimulated using implanted microelectrodes proving small electrical currents, and the response is measured in the innervated tibialis anterior (TA) muscle using an implanted recording electrode. It is known that the CMAP signal is decreased in the case of neuromuscular diseases, like in ALS patients, and recapitulated in the SOD1^G93A mouse model due to motor unit loss. In male SOD1^G93A mice, it has been shown that CMAP changes may happen as early as age day 50 and invariably worse after. In the present study, mice were treated once a day for 14 days with 2, 6, or 12 mg/kg CuPTSM; 10 or 30 mg/kg CuATSM; or vehicle (control). A total of 9 male mice were tested for each condition.
Prior to drug administration and assignment of mice to a cohort, CMAP was recorded for each mouse to establish a baseline measurement. Mice were then randomized into each treatment cohort, and administered the respective compounds and dosages of the cohort via oral gavage daily for two weeks. CMAP data was recorded at the end of the two weeks, and compared to the baseline measurements to calculate percent of baseline to illustrate the efficacy of CuPTSM and CuATSM compared to just vehicle.

| Structure (SMILES) | tolerability in mice (mice) | onset of paresis compared to control (SOD1^G93A mice [1]; 6 mg/kg once a day) | survival compared to control (SOD1^G93A mice [2]; 6 mg/kg once a day) | absorption half-life ([4]; plasma) | elimination half-life ([4]; plasma) | plasma Cmax ([4]; plasma) | Cmax ([4]; spinal cord) | absorption half-life ([4]; spinal cord) | elimination half-life ([4]; spinal cord) | further results |
| --- | --- | --- | --- | --- | --- | --- | --- | --- | --- | --- |
| CN=C([S-])N/N=C(C)/C(C)=N/NC([S-])=NC.[Cu+2] [CuATSM] | well-tolerated | no significant improvement in onset of paresis | no significant difference in survival | 0.24 h | 13.7 h | 198 ng/mL | 2 ng/mL | 0.65 h | 13.8 h | onset of paresis compared to control (SOD1^G93A mice [1]; 30 mg/kg once a day): delaying onset over the control; onset of paresis compared to control (SOD1^G93A mice [1]; 100 mg/kg once a day): delaying onset over the control; survival compared to control (SOD1^G93A mice [2]; 30 mg/kg once a day): increase in survival over the control counterparts; survival compared to control (SOD1^G93A mice [2]; 100 mg/kg once a day): increase in survival over the control counterparts; simulated plasma concentration before the next dose ([3]; 30 mg/kg): did not return to 0 ng/mL prior the next dose; simulated plasma concentration before the next dose ([3]; 100 mg/kg): did not return to 0 ng/mL prior the next dose; CMAP change from baseline compared to vehicle (male SOD1^G93A mice; 10 mg/kg oral gavage once a day for 14 days): no significant difference in CMAP measurements; CMAP change from baseline compared to vehicle (male SOD1^G93A mice; 30 mg/kg oral gavage once a day for 14 days): no significant difference in CMAP measurements |
| CN=C([S-])N/N=C/C(C)=N/NC([S-])=NC.[Cu+2] [CuPTSM, copper PTSM] | toxic to mice | delaying onset over the control | increase in survival over the control counterparts | 0.54 h | 2.44 h | 1565 ng/mL | 7.27 ng/mL | 1.0 h | 1.9 h | delay of onset of paresis compared to CuATSM 30 and 100 mg/kg groups (each over its respective control) (SOD1^G93A mice [1]; 6 mg/kg once a day): significantly delayed onset of paresis over CuATSM; survival compared to CuATSM 30 and 100 mg/kg groups (SOD1^G93A mice [2]; 6 mg/kg once a day): markedly improved survival; simulated plasma concentration before the next dose ([3]; 6 mg/kg): plasma levels returned to 0 ng/mL prior to the next dose; CMAP change from baseline compared to vehicle (male SOD1^G93A mice; 2 mg/kg oral gavage once a day for 14 days): significantly greater change from baseline; CMAP change from baseline compared to vehicle (male SOD1^G93A mice; 6 mg/kg oral gavage once a day for 14 days): significantly greater change from baseline; CMAP change from baseline compared to vehicle (male SOD1^G93A mice; 12 mg/kg oral gavage once a day for 14 days): significantly greater change from baseline |
